In US20250154146A1, “PROTEIN DEGRADERS DEVELOPED ON BASIS OF BCL-2 FAMILY PROTEIN LIGAND COMPOUNDS AND USE THEREOF” (ShanghaiTech University, priority 2022, published 2025):
Entries after “also recorded” stand apart in the source; their conditions may differ.

How the values were obtained:
Type in all cases: cell-based
[1] = tested on: Hedgehog (Hh) signaling pathway; test: Dual-luciferase reporter assay of Hedgehog activity in Light II cells; conditions: SAG stimulation, 36 h, dual-luciferase assay reporter kit, read-out: IC50 (nM) in Light II cells (inhibiting Hedgehog activity)
Procedure: Determination of the IC50 Values of Compounds Inhibiting Hedgehog Activity—Dual-Luciferase Reporter Assay:
Light II cells were NIH3T3 cell lines that stably express the Gli-luciferase and TK-renilla reporters. They were cultured with DMEM medium containing 10% (v/v) fetal bovine serum (FBS), 0.4 mg/ml G418, 0.15 mg/ml bleomycin (Zeocin), and penicillin/streptomycin at 37° C. in an incubator with 5% CO2. Light II cells in the logarithmic growth phase were seeded at a density of 2.5×10^4 cells/well in a 96-well plate. After 24h incubation, the cells were subjected to treatment with SAG with or without different concentrations of the compounds of the present disclosure for 36 h. After that, the Hedgehog activity was measured using the dual fluorescence reporter kit according to its instructions. The experiment had 3 replicates per group and was repeated at least three times.

Molt-4 cells = test: Thiazolyl blue cell proliferation assay in Molt-4 cells; conditions: Homo sapiens, Molt-4 acute lymphocytic leukemia cells, 72 hours, read-out: IC50 (nM) for inhibiting the proliferation of Molt-4 cells
From the text: (§1) The cell lines RS4;11 (human acute lymphocytic leukemia cells), Molt-4 cells (human acute lymphocytic leukemia cells), MV4;11 (human myeloid monocytic leukemia cells), and Light II cells were commercially available or purchased from ATCC (American Type Culture Collection) and routinely cultured according to instructions.
3) Study on the proliferation inhibition effects induced by the compounds of the present disclosure designed based on ABT199/263 against BCL-XL-dependent Molt-4 cells:
(§2) The specific steps were as follows: Molt-4 cells were seeded at a density of 2×10^4 cells/well in 180 μL of serum-containing RPMI 1640 culture medium. DT2216 and the compounds of the present disclosure were added to the cell suspension at corresponding concentration gradients. DT2216 and DMSO were used as positive and vehicle control, respectively. The positive control and negative control were treated with the same treatment method as the compounds of the present disclosure. After treating the cells with the compounds of the present disclosure for 72 hours, thiazole blue solution (5 mg/mL) was added at 20 μL/well to the cell suspension, followed by incubation for 3 hours at 37° C. in an incubator with 5% CO2. Then, triple solution (0.1 g/mL SDS, 5% isopropyl alcohol, 10 mM hydrochloric acid) was added, followed by incubation for 4-6 hours at 37° C. in an incubator with 5% CO2. After confirming that all the crystal violets were dissolved under inverted biological microscopy, the absorbance was measured at 490 nm using an Epoch microplate reader (Biotek Corporation). The growth inhibition of the compounds of the present disclosure on the cells was plotted by GraphPad Prism 8 software, and the IC50 values of the compounds of the present disclosure were calculated therefrom. The experiment had 3 replicates per group and was repeated at least three times.

BCL-XL protein = biological target: T1, BCL-XL protein (Homo sapiens, UniProt Q07817); test: Western blot of BCL-XL protein in Molt-4 cells; conditions: 100 nM, 8 h
T1 construct: endogenous in cells; host or cells: Molt-4 (human acute lymphocytic leukemia cells)
Procedure: The BCL-XL antibody used in the experiment was purchased from Abcam Company, and the Tubulin antibody was purchased from Proteintech Company.
Molt-4 cells in logarithmic growth phase seeded at a density of 3×10^6 cells/well in a 6-well plate were subjected to treatment with the compounds of the present disclosure, and DMSO was used as the vehicle control group. After […] of treatment, the cells were harvested and washed once in PBS. Cells were placed on ice and treated with IP protein lysis buffer containing PMSF protease inhibitors. After centrifugation at 4° C. (10 k rpm, 5 min), the supernatant was collected and mixed with 4×LDS protein loading buffer at a volume ratio of 3:1. The mixture of protein supernatant with loading buffer were further added with 5% β-mercaptoethanol. After incubation in a metal bath at 95° C. for 10 minutes, the protein samples was stored at −80° C. or cooled directly on ice for protein electrophoresis using 10% homemade polyacrylamide gel as separation gel. Electrophoresis tank and other related components were purchased from Bio-rad company. The electrophoresis conditions were voltage 80 V for 45 minutes, then switch to voltage 120V for further electrophoresis for 1 hour. Then protein in gel was transferred onto PVDF membrane at an isocurrent of 300 mA in an icy water bath for one hour. Afterwards, the membrane was blocked with 5% skim milk for 1 hour at room temperature. Subsequently the membrane was incubated with primary antibody at 4° C. overnight or at room temperature for 2 h, then washed with 1×TBST buffer (sodium chloride, 150 mM, Tris, 10 mM, Tween 20, 0.1%; PH 7.4) for three times, and then added with secondary antibody and incubated at room temperature for 45 min, washed with 1×TBST buffer (sodium chloride, 150 mM, Tris, 10 mM, Tween 20, 0.1%; PH 7.4) three times, and subjected to color development. The antibody dilution ratio was determined according to the antibody instructions.
Molt-4 cells were seeded into a 6-well plate at a density of 3×10^6 cells per well. The next day, the cells were treated with the compounds of the present disclosure at a concentration of 100 nM, and the control groups were treated with DMSO and DT2216, respectively. Protein were extracted after 8 hours treatment, and BCL-XL protein expression was assessed by the western blot.

MV4;11 cells = test: Thiazolyl blue cell proliferation assay in MV4;11 cells; conditions: Homo sapiens, MV4;11 myeloid monocytic leukemia cells, 48 hours, read-out: IC50 (nM) for inhibiting the proliferation of MV4;11 cells
From the text: as §1
2) Study on the proliferation inhibition effects induced by the compounds of the present disclosure designed based on ABT199/263 against BCL-XL-dependent MV4;11 cells:
as §2, with “MV4;11” for “Molt-4”, “90” for “180”, “IMDM” for “RPMI 1640”, “48” for “72”, “10 µL/well” for “20 μL/well”

RS4;11 cells = test: Thiazolyl blue cell proliferation assay in RS4;11 cells; conditions: Homo sapiens, RS4;11 acute lymphoblastic leukemia cells, 48 hours, read-out: IC50 (nM) for inhibiting the proliferation of RS4;11 cells
From the text: as §1
1) Study on the proliferation inhibition effects induced by the compounds of the present disclosure designed based on ABT199/263 against BCL-XL-dependent RS4;11 cells:
as §2, with “RS4;11” for “Molt-4”, “3×10^4” for “2×10^4”, “90” for “180”, “RPMI-1640” for “RPMI 1640”, “48” for “72”, “10” for “20”
We conducted dose-dependent experiments on the designed and synthesized compounds of the present disclosure in RS4;11 cells, which are highly sensitive to BCL-XL inhibitors. The cells were treated with 7 different concentrations (starting at the highest concentration of 1000 nM or 100 nM; 10-fold serial dilutions) of the compounds for 48 hours, and then tested using the thiazolyl blue cell proliferation assay.

T1 sequence (Q07817 whole entry): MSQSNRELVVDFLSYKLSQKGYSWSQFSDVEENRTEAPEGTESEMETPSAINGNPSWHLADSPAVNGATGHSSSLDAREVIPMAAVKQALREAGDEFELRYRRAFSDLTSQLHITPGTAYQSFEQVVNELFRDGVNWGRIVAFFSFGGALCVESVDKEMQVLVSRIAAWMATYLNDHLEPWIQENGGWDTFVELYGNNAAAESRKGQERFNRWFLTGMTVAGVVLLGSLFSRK

SMILES	IC50 [1]	IC50 (Molt-4 cells)	BCL-XL protein expression / degradation (western blot) (BCL-XL protein)	IC50 (MV4;11 cells)	IC50 (RS4;11 cells)
CC1(C)CCC(CN2CCN(c3ccc(C(=O)NS(=O)(=O)c4ccc(NC[C@H]5CC[C@H](N6CCN(Cc7cc(Br)c8c(c7)C(=O)N(C7CCC(=O)NC7=O)C8)CC6)CC5)c([N+](=O)[O-])c4)c(Oc4cnc5[nH]ccc5c4)c3)CC2)=C(c2ccc(Cl)cc2)C1 (relative stereo) [BCL-03146, 2-((1H-pyrrolo[2,3-b]pyridin-5-yl)oxy)-N-((4-((((trans)-4-(4-((7-bromo-2-(2,6-dioxopiperidin-3-yl)-3-oxoisoindolin-5-yl)methyl)piperazin-1-yl)cyclohexyl)methyl)amino)-3-nitrophenyl)sulfonyl)-4-(4-((4′-chloro-5,5-dimethyl-3,4,5,6-tetrahydro-[1,1′-biphenyl]-2-yl)methyl)piperazin-1-yl)benzamide]	< 10 nM	< 10 nM	significantly reduce the expression of BCL-XL protein; also recorded: significantly degraded BCL-XL protein	< 20 nM	< 20 nM
C[C@@H]1CN([C@H]2CC[C@H](CNc3ccc(S(=O)(=O)NC(=O)c4ccc(N5CCN(CC6=C(c7ccc(Cl)cc7)CC(C)(C)CC6)CC5)cc4Oc4cnc5[nH]ccc5c4)cc3[N+](=O)[O-])CC2)CCN1Cc1ccc2c(c1)CN(C1CCC(=O)NC1=O)C2=O (stereo partly drawn) [BCL-03168, 2-((1H-pyrrolo[2,3-b]pyridin-5-yl)oxy)-4-(4-((4′-chloro-5,5-dimethyl-3,4,5,6-tetrahydro-[1,1′-biphenyl]-2-yl)methyl)piperazin-1-yl)-N-((4-((((trans)-4-((3R)-4-((2-(2,6-dioxopiperidin-3-yl)-1-oxoisoindolin-5-yl)methyl)-3-methylpiperazin-1-yl)cyclohexyl)methyl)amino)-3-nitrophenyl)sulfonyl)benzamide]	< 10 nM	< 10 nM	–	< 20 nM	< 20 nM
C[C@H]1CN([C@H]2CC[C@@H](CNc3ccc(S(=O)(=O)NC(=O)c4ccc(N5CCN(CC6=C(c7ccc(Cl)cc7)CC(C)(C)CC6)CC5)cc4Oc4cnc5[nH]ccc5c4)cc3[N+](=O)[O-])CC2)CCN1Cc1cc(Br)c2c(c1)C(=O)N(C1CCC(=O)NC1=O)C2 (stereo partly drawn) [BCL-03169, 2-((1H-pyrrolo[2,3-b]pyridin-5-yl)oxy)-N-((4-((((cis)-4-((3S)-4-((7-bromo-2-(2,6-dioxopiperidin-3-yl)-3-oxoisoindolin-5-yl)methyl)-3-methylpiperazin-1-yl)cyclohexyl)methyl)amino)-3-nitrophenyl)sulfonyl)-4-(4-((4′-chloro-5,5-dimethyl-3,4,5,6-tetrahydro-[1,1′-biphenyl]-2-yl)methyl)piperazin-1-yl)benzamide]	< 10 nM	< 10 nM	–	< 20 nM	< 20 nM
CC1(C)CCC(c2ccc(Cl)cc2)=C(CN2CCN(c3ccc(C(=O)NS(=O)(=O)c4ccc(N[C@H](CCN5CCN(Cc6ccc7c(c6)CN(C6CCC(=O)NC6=O)C7=O)CC5)CSc5ccccc5)c(S(=O)(=O)C(F)(F)F)c4)cc3)CC2)C1 (stereo partly drawn) [BCL-03177, 4-(4-((4′-chloro-4,4-dimethyl-3,4,5,6-tetrahydro-[1,1′-biphenyl]-2-yl)methyl)piperazin-1-yl)-N-((4-(((2R)-4-(4-((2-(2,6-dioxopiperidin-3-yl)-1-oxoisoindolin-5-yl)methyl)piperazin-1-yl)-1-(phenylthio)butan-2-yl)amino)-3-((trifluoromethyl)sulfonyl)phenyl)sulfonyl)benzamide]	< 10 nM	< 10 nM	–	< 20 nM	< 20 nM
CC1(C)CCC(c2ccc(Cl)cc2)=C(CN2CCN(c3ccc(C(=O)NS(=O)(=O)c4ccc(N[C@H](CCN5CCN(Cc6ccc7c(c6)C(=O)N(C6CCC(=O)NC6=O)C7=O)CC5)CSc5ccccc5)c(S(=O)(=O)C(F)(F)F)c4)cc3)CC2)C1 (stereo partly drawn) [BCL-03189, 4-(4-((4′-chloro-4,4-dimethyl-3,4,5,6-tetrahydro-[1,1′-biphenyl]-2-yl)methyl)piperazin-1-yl)-N-((4-(((2R)-4-(4-((2-(2,6-dioxopiperidin-3-yl)-1,3-dioxoisoindolin-5-yl)methyl)piperazin-1-yl)-1-(phenylthio)butan-2-yl)amino)-3-((trifluoromethyl)sulfonyl)phenyl)sulfonyl)benzamide]	< 10 nM	< 10 nM	–	< 20 nM	< 20 nM
